{
  "source": "patent US20100204136A1",
  "about": "“USE OF A PEPTIDE AS A THERAPEUTIC AGENT” (priority 2007, published 2010)",
  "key": {"HIV-1IIIB": {"system": "HIV-1IIIB", "test": "HIV-1 antiviral assay (CPE reduction, MTS)", "assay_type": "cell-based", "settings": "peptide 10 micrograms per ml; 6 days post-infection"}, "CEM-SS cells": {"system": "CEM-SS cells", "test": "Cytotoxicity in HIV-1 assay (MTS cell viability)", "settings": "peptide 10 micrograms per ml"}, "HepG2-2.2.15 cells": {"system": "HepG2-2.2.15 cells", "test": "Cytotoxicity in HBV assay (dye uptake cell viability)", "assay_type": "cell-based", "settings": "test peptide 10 micrograms per ml"}, "MRC-5 cells": {"system": "MRC-5 cells", "settings": "human, 6 days", "protocol": "For cytotoxicity testing, MRC-5 cells were seeded at 2,500 cells/well in 96 well plates using growth medium. […] The following day, peptide was added and tested in duplicates. After a 6 days incubation period, cell viability was measured using CellTiter 96 Solution (Promega). Plates were incubated for additional 4 hours at 37° C. Adhesive plate sealers were used in place of lids, the sealed plates were inverted several times to mix the soluble formazan product and the plate was read spectrophotometrically at 490/560 nm with a Molecular Devices Vmax plate reader."}},
  "data": [
    {"smiles": "Cc1cn([C@H]2C[C@H](N=[N+]=[N-])[C@@H](CO)O2)c(=O)[nH]c1=O", "note": "[AZT]", "values": [
      {"measurement": "% CPE reduction in HIV-1 infected CEM-SS cells", "setting": "HIV-1IIIB", "result": 99, "unit": "%"},
      {"measurement": "% Cell viability", "setting": "CEM-SS cells", "result": 97, "unit": "%"}
    ]},
    {"smiles": "Nc1ccn([C@@H]2CS[C@H](CO)O2)c(=O)n1", "note": "[Compound 3TC]", "values": [
      {"measurement": "% Cell viability", "setting": "HepG2-2.2.15 cells", "result": 95.8, "unit": "%"}
    ]},
    {"smiles": "Nc1nc(O)c2ncn(COC(CO)CO)c2n1", "note": "[Ganciclovir]", "values": [
      {"measurement": "% Cell viability", "setting": "MRC-5 cells", "result": 100, "unit": "%"}
    ]}
  ]
}
